Data set [1] concerns PC9 cells expressing EGFR-C797S/T790M/Del19. The data set is described as follows: Cell anti-proliferation experiment 2, PC9 cells (SRB). The format is cell-based. As to conditions: Homo sapiens, PC-9, 72 h, read-out: EGFR-C797S/T790M/Del19 GI50. How it is done: (§1) • 1. […] Test information: • 2.1. Cell information: PC9 cells carried EGFR Del19 mutation, and the rest of mutant cells were constructed from PC9 cells according to the conventional stable cell strain construction method. • PC9-cell lines expressing EGFR mutation • EGFR-Del19 • EGFR-T790M/Del19 • EGFR-C797S/T790M/Del19 • 2.2. Test method:
(§2) The test compounds were diluted by 5 times each time with an appropriate concentration as an initial concentration of the test, and totally diluted into 6 concentration gradients. […] SRB (Sulforhodamine B) detection method was used, and the optical density value of each well was read by a microplate reader at 490 nm wavelength.
(§3) The optical density of the cells at the drug action of 0 was set as a Tz value representing the value of the cells at the time that the drug was added. The optical density value of the cells after the solvent control DMSO acted for 72 hours was set as a C value. The optical density of the cells on which the test compounds acted for 72 hours was set as a Ti value. The response of the cells to the drug was calculated according to a method proposed by the U.S. NIH-NCI (National Institutes of Health-National Institute of Cancer): When Ti is more than or equal to Tz, the value was [(Ti−Tz)/(C−Tz)]×100; and when Ti is less than Tz, the value was [(Ti−Tz)/Tz]×100.

Data set [2] concerns PC9 cells expressing EGFR-Del19. The description is as above. Format: cell-based. As to conditions: Homo sapiens, PC-9, 72 h, read-out: EGFR-Del 19 GI50. How it is done:
as §1, §2, §3

In data set [3] the test system is PC9 cells expressing EGFR-T790M/Del19. The data set is described as above. The format is cell-based. As to conditions: Homo sapiens, PC-9, 72 h, read-out: EGFR-T790M/Del19 GI50. The method, then: as §1, §2, §3
Data set [4] deals with Ba/F3 cells expressing EGFR-T790M/Del19 (Homo sapiens, UniProt P00533, T790M, cells depend on it, form not given). Nature of the data set: Cell anti-proliferation experiment 1, BaF3 cells expressing EGFR mutation (CellTiter-Glo). The format is cell-based. As to conditions: 3 days, CTG, read-out: EGFR-T790M/Del19 IC50.
Data set [5] deals with Ba/F3 cells expressing EGFR-C797S/Del19 (Homo sapiens, UniProt P00533, C797S, cells depend on it, form not given). The description is as above. Format: cell-based. Conditions: 3 days, CTG, read-out: EGFR-C797S-Del19 IC50.
In data set [6] the target is Ba/F3 cells expressing EGFR-T790M/L858R (Homo sapiens, UniProt P00533, T790M/L858R, cells depend on it). Described as above. Format: cell-based. As to conditions: 3 days, CTG, read-out: EGFR-T790M/L858R IC50.
Description: (§6) Test purpose: to detect the effect of the test compounds on the proliferation of cell lines containing EGFR mutations in BaF3 cells • 2. Test information: • 2.1. Cell information: Cell lines containing EGFR mutations in BaF3 were from WuXiAppTec: • BaF3-cell lines expressing EGFR mutation • EGFR-T790M/Del19 • EGFR-C797S/Del19 • EGFR-T790M/L858R • EGFR-C797S/L858R • EGFR-C797S/T790M/L858R • EGFR-C797S/T790M/Del19 • EGFR-WT wild-type cell lines • 2.2. Test method • Day 0: Cells were seeded in a plate. • a. An ultraviolet lamp of a biological safety cabinet was turned on and countdown was started for 30 minutes. • b. A medium was preheated in a 37° C. water bath. • c. After the ultraviolet irradiation was finished, the biological safety cabinet was opened. […] The cells were removed from an incubator, blown to a uniform cell suspension in the biological safety cabinet and counted. • e. […] The IC50 of each compound was calculated by computer fitting with XL-Fit analysis software (the IC50 of the compound on the cell activity inhibition could be obtained by reading the concentrations of the corresponding compounds at 500 inhibition rate). Inhibition rate % C (reading value of the control group without drug−reading value of the sample)/reading value of the control group without drug×100. • 3.
In data set [7] the target is Ba/F3 cells expressing EGFR-C797S/L858R (Homo sapiens, UniProt P00533, C797S/L858R, cells depend on it). The description is as above. Format: cell-based. As to conditions: 3 days, CTG, read-out: EGFR-C797S/L858R IC50.
Description: as §6
For data set [8], the target named is Ba/F3 cells expressing EGFR-C797S/T790M/L858R (Homo sapiens, UniProt P00533, T790M/C797S/L858R, cells depend on it). The description is as above. The format is cell-based. As to conditions: read-out: EGFR-C797S/T790M/L858R IC50.
Sequence of Ba/F3 cells expressing EGFR-C797S/T790M/L858R (P00533 whole entry T790M/C797S/L858R): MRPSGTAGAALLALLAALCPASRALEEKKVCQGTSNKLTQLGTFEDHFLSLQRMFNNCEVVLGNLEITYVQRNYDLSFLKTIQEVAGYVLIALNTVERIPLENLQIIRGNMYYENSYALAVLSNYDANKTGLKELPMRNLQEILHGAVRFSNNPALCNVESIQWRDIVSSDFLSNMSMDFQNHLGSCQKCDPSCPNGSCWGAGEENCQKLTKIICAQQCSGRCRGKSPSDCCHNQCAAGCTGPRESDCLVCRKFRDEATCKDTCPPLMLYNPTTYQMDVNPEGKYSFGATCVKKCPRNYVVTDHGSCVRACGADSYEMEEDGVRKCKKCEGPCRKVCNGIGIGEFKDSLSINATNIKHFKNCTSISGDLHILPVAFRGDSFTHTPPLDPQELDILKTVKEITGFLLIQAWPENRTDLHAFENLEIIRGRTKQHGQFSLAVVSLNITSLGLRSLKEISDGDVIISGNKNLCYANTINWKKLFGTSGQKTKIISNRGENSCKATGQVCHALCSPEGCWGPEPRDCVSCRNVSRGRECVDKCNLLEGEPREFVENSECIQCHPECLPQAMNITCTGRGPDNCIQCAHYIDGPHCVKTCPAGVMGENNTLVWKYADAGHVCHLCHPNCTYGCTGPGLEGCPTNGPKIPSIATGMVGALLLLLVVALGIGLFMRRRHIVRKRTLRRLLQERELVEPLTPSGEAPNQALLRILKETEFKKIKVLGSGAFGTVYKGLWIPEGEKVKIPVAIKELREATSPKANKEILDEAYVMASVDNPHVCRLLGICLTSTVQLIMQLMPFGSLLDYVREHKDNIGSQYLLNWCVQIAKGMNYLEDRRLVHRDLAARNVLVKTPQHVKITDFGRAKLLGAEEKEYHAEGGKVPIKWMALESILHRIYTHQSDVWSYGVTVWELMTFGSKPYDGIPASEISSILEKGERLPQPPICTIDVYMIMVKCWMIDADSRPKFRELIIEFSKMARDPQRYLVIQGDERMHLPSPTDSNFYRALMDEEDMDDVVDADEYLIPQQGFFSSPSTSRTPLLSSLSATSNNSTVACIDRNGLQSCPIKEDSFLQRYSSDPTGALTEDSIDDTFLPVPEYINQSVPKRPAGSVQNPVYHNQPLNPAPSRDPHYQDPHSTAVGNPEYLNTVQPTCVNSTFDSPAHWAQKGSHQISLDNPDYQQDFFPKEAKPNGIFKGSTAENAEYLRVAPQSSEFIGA
Description: (§7) Test purpose: to detect the effect of the test compounds on the proliferation of cell lines containing EGFR mutations in BaF3 cells • 2. […] Cell information: Cell lines containing EGFR mutations in BaF3 were from WuXiAppTec: • BaF3-cell lines expressing EGFR mutation • EGFR-T790M/Del19 • EGFR-C797S/Del19 • EGFR-T790M/L858R • EGFR-C797S/L858R • EGFR-C797S/T790M/L858R • EGFR-C797S/T790M/Del19 • EGFR-WT wild-type cell lines • 2.2. Test method • Day 0: Cells were seeded in a plate. • a. An ultraviolet lamp of a biological safety cabinet was turned on and countdown was started for 30 minutes. • b. A medium was preheated in a 37° C. water bath. • c. After the ultraviolet irradiation was finished, the biological safety cabinet was opened. The pre-heated medium, PBS, and the like, were wiped with alcohol and placed in the biological safety cabinet. • d. The cells were removed from an incubator, blown to a uniform cell suspension in the biological safety cabinet and counted. • e. Based on the cell counting results, the cell suspension was adjusted to a density of 3,000 cells per well and 50 microliters per well, and seeded in 384-well plates. • f. The cells after seeding were incubated in a 5% CO2 incubator at 37° C. for 3 hours. • g. Compounds were added to the cell plates using Tecan (liquid workstation). • Day 3: the cell plate added with the compounds and CTG (CellTiter-Glo chemiluminescence cell activity assay reagent) were equilibrated at room temperature, 25 μl of CTG was added to each well, centrifuged at 1,000 rpm for 1 minute, and shaken for 1-2 minutes. And centrifuging for 1 minute at 1,000 rpm again, the cell plates were allowed to settle for 10 minutes to detect a signal value in Envision. The IC50 of each compound was calculated by computer fitting with XL-Fit analysis software (the IC50 of the compound on the cell activity inhibition could be obtained by reading the concentrations of the corresponding compounds at 500 inhibition rate). Inhibition rate % C (reading value of the control group without drug−reading value of the sample)/reading value of the control group without drug×100. • 3.
For data set [9], the target named is Ba/F3 cells expressing EGFR-C797S/T790M/Del19 (Homo sapiens, UniProt P00533, T790M/C797S, cells depend on it, form not given). The description is as above. Format: cell-based. Conditions: read-out: EGFR-C797S/T790M/Del19 IC50.
Sequence of Ba/F3 cells expressing EGFR-C797S/T790M/Del19 (P00533 with tags, fused parts or gaps DEL746-750/T790M/C797S, form open): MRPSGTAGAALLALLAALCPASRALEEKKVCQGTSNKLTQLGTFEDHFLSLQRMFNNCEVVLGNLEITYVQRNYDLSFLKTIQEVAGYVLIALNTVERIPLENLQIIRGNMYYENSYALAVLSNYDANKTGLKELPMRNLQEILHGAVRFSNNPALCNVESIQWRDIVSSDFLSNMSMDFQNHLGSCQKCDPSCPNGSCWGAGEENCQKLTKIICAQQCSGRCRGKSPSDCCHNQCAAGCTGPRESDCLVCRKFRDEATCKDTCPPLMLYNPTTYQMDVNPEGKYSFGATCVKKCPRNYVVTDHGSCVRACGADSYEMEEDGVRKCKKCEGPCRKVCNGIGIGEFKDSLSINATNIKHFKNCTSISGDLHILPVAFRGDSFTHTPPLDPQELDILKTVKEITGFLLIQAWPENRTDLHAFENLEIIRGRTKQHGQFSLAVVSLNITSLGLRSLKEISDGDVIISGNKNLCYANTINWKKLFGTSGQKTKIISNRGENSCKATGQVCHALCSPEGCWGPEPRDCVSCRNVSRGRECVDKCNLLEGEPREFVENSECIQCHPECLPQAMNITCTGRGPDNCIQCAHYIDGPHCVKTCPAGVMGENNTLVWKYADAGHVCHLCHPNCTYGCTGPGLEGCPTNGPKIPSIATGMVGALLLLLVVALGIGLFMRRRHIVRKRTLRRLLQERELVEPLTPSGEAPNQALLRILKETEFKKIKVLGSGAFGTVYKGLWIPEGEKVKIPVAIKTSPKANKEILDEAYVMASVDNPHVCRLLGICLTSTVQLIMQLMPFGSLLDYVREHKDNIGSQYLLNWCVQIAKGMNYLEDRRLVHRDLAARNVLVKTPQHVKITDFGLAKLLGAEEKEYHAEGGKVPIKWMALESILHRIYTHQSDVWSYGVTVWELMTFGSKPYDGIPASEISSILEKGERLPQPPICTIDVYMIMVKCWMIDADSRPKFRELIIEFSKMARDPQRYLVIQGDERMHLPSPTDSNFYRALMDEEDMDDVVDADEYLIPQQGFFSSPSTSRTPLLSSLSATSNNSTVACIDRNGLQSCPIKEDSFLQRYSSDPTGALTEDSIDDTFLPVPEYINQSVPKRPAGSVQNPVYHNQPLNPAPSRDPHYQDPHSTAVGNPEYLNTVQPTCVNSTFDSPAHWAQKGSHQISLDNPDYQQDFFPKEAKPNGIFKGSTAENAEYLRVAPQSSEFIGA
Data set [10] concerns the target Ba/F3 cells expressing EGFR-WT (Homo sapiens, UniProt P00533). Nature of the data set: Cell anti-proliferation experiment 1, BaF3 EGFR-WT wild-type cell line (CellTiter-Glo). Format: cell-based. As to conditions: read-out: EGFR-WT IC50. For orientation: In ATP-based viability assays light output follows the ATP content of the culture.
Description: as §7
For data set [11], the target named is T1, BaF3 cells expressing EML-4-ALK-WT (Homo sapiens, UniProt Q9UM73).
T1 construct: fused on or other part: Q9HC35 (Echinoderm microtubule-associated protein-like 4)
T1 sequence (Q9UM73 whole entry, change not shown, the tested form may be a part): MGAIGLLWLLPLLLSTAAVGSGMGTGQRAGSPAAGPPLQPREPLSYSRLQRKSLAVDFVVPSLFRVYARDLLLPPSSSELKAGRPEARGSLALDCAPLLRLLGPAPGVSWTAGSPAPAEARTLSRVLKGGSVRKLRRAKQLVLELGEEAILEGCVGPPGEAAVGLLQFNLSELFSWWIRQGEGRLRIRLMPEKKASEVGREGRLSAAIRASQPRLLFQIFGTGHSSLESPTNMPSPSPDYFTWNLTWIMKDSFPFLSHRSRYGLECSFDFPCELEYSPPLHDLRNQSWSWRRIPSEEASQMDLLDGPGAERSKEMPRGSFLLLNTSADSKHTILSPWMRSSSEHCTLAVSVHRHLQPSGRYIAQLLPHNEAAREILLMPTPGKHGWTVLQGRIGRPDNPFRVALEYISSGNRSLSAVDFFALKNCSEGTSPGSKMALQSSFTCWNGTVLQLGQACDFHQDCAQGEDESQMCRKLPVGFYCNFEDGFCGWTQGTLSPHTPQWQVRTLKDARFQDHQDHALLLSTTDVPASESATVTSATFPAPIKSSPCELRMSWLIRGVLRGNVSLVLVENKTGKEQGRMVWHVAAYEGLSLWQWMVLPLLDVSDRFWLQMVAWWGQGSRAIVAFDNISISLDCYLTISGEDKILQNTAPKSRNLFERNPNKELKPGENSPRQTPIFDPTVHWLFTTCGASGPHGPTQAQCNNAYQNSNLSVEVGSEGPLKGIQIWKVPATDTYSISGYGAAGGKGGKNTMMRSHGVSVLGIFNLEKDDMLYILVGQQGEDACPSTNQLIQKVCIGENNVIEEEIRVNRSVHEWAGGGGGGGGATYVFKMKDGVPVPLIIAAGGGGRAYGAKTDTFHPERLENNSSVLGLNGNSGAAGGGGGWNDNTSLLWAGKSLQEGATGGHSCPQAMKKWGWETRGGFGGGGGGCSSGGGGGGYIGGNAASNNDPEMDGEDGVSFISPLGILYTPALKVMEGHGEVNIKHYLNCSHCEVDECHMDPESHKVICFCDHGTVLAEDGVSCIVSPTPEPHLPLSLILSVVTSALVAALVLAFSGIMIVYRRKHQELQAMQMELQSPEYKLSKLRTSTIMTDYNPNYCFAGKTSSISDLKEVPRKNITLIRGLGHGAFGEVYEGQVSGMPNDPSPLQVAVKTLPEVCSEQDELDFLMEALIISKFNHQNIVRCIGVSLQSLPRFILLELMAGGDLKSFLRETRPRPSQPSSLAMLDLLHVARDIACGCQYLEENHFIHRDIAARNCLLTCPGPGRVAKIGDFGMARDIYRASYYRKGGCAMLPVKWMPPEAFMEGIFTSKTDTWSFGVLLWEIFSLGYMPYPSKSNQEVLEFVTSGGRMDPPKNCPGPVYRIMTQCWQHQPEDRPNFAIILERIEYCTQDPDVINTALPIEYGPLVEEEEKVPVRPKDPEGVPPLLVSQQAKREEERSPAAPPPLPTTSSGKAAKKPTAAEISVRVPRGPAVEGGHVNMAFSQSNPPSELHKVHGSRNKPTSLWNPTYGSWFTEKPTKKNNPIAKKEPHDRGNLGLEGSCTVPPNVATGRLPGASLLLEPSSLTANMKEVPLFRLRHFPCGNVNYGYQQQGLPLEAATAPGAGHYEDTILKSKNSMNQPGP
Nature of the data set: Cell anti-proliferation experiment 3, BaF3 cells with ALK fusion (CellTiter-Glo). The format is cell-based. Conditions: 3 days, CTG, read-out: EML-4-ALK-WT IC50. From the text: (§4) • 1. […] Test information: • 2.1. Cell information: Cell lines containing ALK mutations in BaF3 were from WuXiAppTec: • Ba/F3-cell lines expressing ALK gene fusion and mutation • Ba/F3-EML-4-ALK-WT • Ba/F3-EML-4-ALK-L 1196M • 2.2.
(§5) Test results: The IC50 values of the compound DA and the control compound against BaF3 cells expressing EML-4-ALK-WT and EML-4-ALK-L1196M are shown in Table 22. • 4.

Data set [12] has as its target T2, BaF3 cells expressing EML-4-ALK-L1196M (Homo sapiens, UniProt Q9UM73, L1196M, cells depend on it).
T2 construct: fused on or other part: Q9HC35 (Echinoderm microtubule-associated protein-like 4)
Nature of the data set: Cell anti-proliferation experiment 3, BaF3 cells with ALK fusion and mutation (CellTiter-Glo). Conditions: 3 days, CTG, read-out: EML-4-ALK-L1196M IC50. The format is cell-based.
Description: as §4, §5

Data set [13] can be described thus: Comparative experiment of hygroscopicity (Chinese Pharmacopoeia 2020). Conditions: for Hygroscopicity: class by weight gain after 24 h; for Weight gain % after 24 h: hygroscopicity test. Format: physicochemical. From the text: The description of hygroscopic characteristics and the definition of hygroscopic weight gain are as follows: • Deliquescence: absorbs sufficient amount of water to form a liquid; • Very hygroscopic: the weight gain by hygroscopy is not less than 15%; • Hygroscopic: the weight gain by hygroscopy is less than 15% but not less than 2%; • Slightly hygroscopic: the weight gain by hygroscopy is less than 2% but not less than 0.2%; and
Not or almost not hygroscopic: the weight gain by hygroscopy is less than 0.2% from hygroscopicity.

The nature of the next data set: Solubility test. Format: physicochemical. Conditions: Solution with pH = 6.8, 25° C.±2° C.
Data set [14] in a line: Stability test 3: long-term and accelerated conditions. As to conditions: Long-term (25° C. ± 2° C., 65% RH ± 10% RH). The format is physicochemical.
A short description of data set [15]: High temperature and illumination stability test of crystal forms 1-3. Format: physicochemical. As to conditions: for Traits: Day 10 (Table 18-1). From the text:
The stabilities of crystal form 2 and crystal form 3 under high temperature, illumination and long-term conditions were investigated.

Test in data set [16]: as above
The format is physicochemical. As to conditions: Illumination (illuminance: 5000Lx), Day 0 (Table 18-1).

[17] abbreviates: High temperature (50° C.), Day 10.
Setting [18] is: High temperature (50° C.), Day 30.
[19] abbreviates: Illumination (illuminance: 5000Lx), Day 10.
Setting [20] is: Illumination (illuminance: 5000Lx).
[21] abbreviates: Illumination (illuminance: 5000Lx), Day 30.

T2 sequence (Q9UM73 whole entry L1196M, the tested form may be a part): as the sequence (Q9UM73 whole entry, change not shown, the tested form may be a part) above, with L1196M counted along it

As to `COc1cc(N2CCC(N3CCN(C)CC3)CC2)ccc1Nc1ncc(Cl)c(Nc2ccccc2P(C)(C)=O)n1` [Brigatinib (Brigatinib), Brigatinib], the GI50 worked out at 516 nM in data set [1], 287 nM in data set [2] and 256 nM in [3].
Consider `COc1cc(N2CCC(N3CCN(C)CC3)CC2)c(C)cc1Nc1ncc(Cl)c(Nc2cccc(C)c2P(C)(C)=O)n1` [Control compound 1], for which the GI50 came out at 166 nM in data set [4]; 184 nM in [5]; 156 nM in data set [6]; 573 nM in [7]; 626 nM in data set [8]; 180 nM in data set [9]. In addition, the GI50 in data set [10] stood at 1600 nM; in data set [11] it was 34.1 nM; in data set [12] it was 65 nM.
In the case of `COc1cc(N2CCC(N3CCN(C)CC3)CC2)c(C)cc1Nc1ncc(Cl)c(Nc2ccccc2P(C)(C)=O)n1` [Control compound 2], the GI50 worked out at 172 nM in [4]; 177 nM in [5]; 583 nM in data set [8]; 221 nM in data set [9]; 1760 nM in data set [10]; 43.6 nM in [11]. The GI50 in data set [12] stood at 47.4 nM.
For `COc1cc(N2CCC(N3CCN(C)CC3)CC2)ccc1Nc1ncc(Cl)c(Nc2ccc(C)cc2P(C)(C)=O)n1` [Control compound 3], the GI50 in data set [4] is 216 nM; in data set [5], 203 nM; in data set [8], 566 nM; in data set [9], 192 nM; in [10], 2340 nM; in data set [11], 39.4 nM. In addition, in data set [12], the GI50 was determined as 50.2 nM.
Consider `COc1cc(N2CCC(N3CCN(C)CC3)CC2)c(C)cc1Nc1ncc(Br)c(Nc2ccc(C)cc2P(C)(C)=O)n1` [Crystal form 2, (2-((5-bromo-2-((2-methoxy-5-methyl-4-(4-(4-methylpiperazin-1-yl)piperidin-1-yl)phenyl)amino)pyrimidin-4-yl)amino)-5-methylphenyl)dimethylphosphorus oxide], for which, in [13], the Hygroscopicity entry is given as “Slightly hygroscopic (the weight gain by hygroscopy is less than 2% but not less than 0.2%)”. For the same compound, in data set [13], the “Weight gain % after 24 h” value is given as 1.35%. Further, the “Solubility for 24 h” value in the data set “Solubility test” stood at 1360 µg/mL. For the same compound, the Traits result was “Off-white” in data set [14] (Day 0), “Light yellow” in data set [14] (Day 30), “light yellow” in [15] (setting [20]) and “off-white” in data set [16]. The purity result is “purity: 99.37%” in [15] (Day 0); 99.20% the in data set [15] (setting [17]); “purity: 98.72%;” in [15] (setting [18]); 99.01% the in [15] (setting [19]); “purity: 98.0%;” in data set [15] (setting [21]). The “the number of impurities above the reporting limit” value is on record as “limit is 7 total” in data set [15] (Day 0); “limit is 9 total” in data set [15] (setting [17]); “limit is 13;” in data set [15] (setting [18]); “limit is 10 total” in data set [15] (setting [19]); “limit is 14;” in data set [15] (setting [21]). Also, the total impurities entry in data set [15] (Day 0) is listed as “impurities: 0.63%”; in [15] (Day 0, listed as crystal form 2), 0.63%; in data set [15] (setting [17]), “impurities: 0.80%”; in data set [15] (setting [18]), 1.28%; in data set [15] (setting [19]), “impurities: 0.99%”; in data set [15] (setting [21]), 2.0%. Also, in data set [15] (Illumination (illuminance: 5000Lx), Day 30, listed as crystal form 2), the total impurities was 2.0%.
For the compound `COc1cc(N2CCC(N3CCN(C)CC3)CC2)c(C)cc1Nc1ncc(Br)c(Nc2ccc(C)cc2P(C)(C)=O)n1` [Crystal form 3, (2-((5-bromo-2-((2-methoxy-5-methyl-4-(4-(4-methylpiperazin-1-yl)piperidin-1-yl)phenyl)amino)pyrimidin-4-yl)amino)-5-methylphenyl)dimethylphosphorus oxide], the Hygroscopicity result in [13] is recorded as “Slightly hygroscopic (the weight gain by hygroscopy is less than 2% but not less than 0.2%)”. Also, the “Weight gain % after 24 h” value in data set [13] is given as 1.49%. The “Solubility for 24 h” value in the data set “Solubility test” was determined as 1230 µg/mL. In addition, the Traits entry in data set [14] (Day 0) was “Off-white”; in [14] (Day 30), “Light yellow”; in [15] (setting [20]), “light yellow”; in data set [16], “off-white”. Moreover, the purity result is “purity: 99.44%;” in [15] (Day 0); 99.28%; the in data set [15] (setting [17]); 98.89%; the in data set [15] (setting [18]); “purity: 98.83%;” in data set [15] (setting [19]); “purity: 96.95%;” in data set [15] (setting [21]). Further, the “the number of impurities above the reporting limit” value in data set [15] (Day 0) is “limit is 7;”; in [15] (setting [17]), “limit is 7; total”; in data set [15] (setting [18]), “limit is 10;”; in data set [15] (setting [19]), “limit is 10;”; in data set [15] (setting [21]) it was “limit is 17;”. Besides, the total impurities is listed as 0.56% in [15] (Day 0); 0.56% in data set [15] (Day 0, listed as crystal form 3); “impurities: 0.72%” in data set [15] (setting [17]); 1.11% in data set [15] (setting [18]); 1.17% in data set [15] (setting [19]); 3.05% in data set [15] (setting [21]). Also, the total impurities in data set [15] (Illumination (illuminance: 5000Lx), Day 30, listed as crystal form 3) came to 3.05%.

Values taken from patent publication US20240376138A1, “Crystal Forms, Preparation Method And Application Of Aryl Phosphine Oxide Compound” (Chengdu Di'Ao Jiuhong Pharmaceutical Factory, priority 2021, published 2024).
